Among the data in US20230115274A1, “COMPOUNDS AND COMPOSITIONS FOR TREATING CONDITIONS ASSOCIATED WITH STING ACTIVITY” (IFM Due, Inc., priority 2019, published 2023) are EC50 values, retold here.

The target of this experiment is T1, hSTING (Homo sapiens, UniProt Q86WV6, G230A/H232R/R293Q/R71H).
T1 construct: host or cells: THP1-Dual KO-IFNAR2 cells
Nature of the experiment: STING reporter assay (luciferase) in THP1-Dual KO-IFNAR2 cells stimulated with 2′3′cGAMP. It is filed as cell-based. The settings on record: 2′3′cGAMP 15 μM, 24 h. The method, then: STING pathway activation by the compounds described herein was measured using THP1-Dual™ cells (KO-IFNAR2).
THP1-Dual™ KO-IFNAR2 Cells (obtained from invivogen) were maintained in RPMI, 10% FCS, 5 ml P/S, 2 mM L-glut, 10 mM Hepes, and 1 mM sodium pyruvate. Compounds were spotted in empty 384 well tissue culture plates (Greiner 781182) by Echo for a final concentration of 0.0017-100 μM. Cells were plated into the TC plates at […], 2×10E6 cells/mL. For activation with STING ligand, 2′3′cGAMP (MW 718.38, obtained from Invivogen), was prepared in Optimem media.
The following solutions were prepared for each 1×384 plate: • Solution A: 2 mL Optimem with one of the following stimuli: • […] • Solution B: 2 mL Optimem with 60 μL Lipofectamine 2000->Incubate 5 min at RT
2 mL of solution A and 2 ml Solution B was mixed and incubated for 20 min at room temperature (RT). 20 uL of transfection solution (A+B) was added on top of the plated cells, with a final 2′3′cGAMP concentration of 15 μM. The plates were then centrifuged immediately at 340 g for 1 minute, after which they were incubated at 37° C., 5% CO2, >98% humidity for 24 h. Luciferase reporter activity was then measured. EC50 values were calculated by using standard methods known in the art.
Luciferase reporter assay: 10 μL of supernatant from the assay was transferred to white 384-plate with flat bottom and squared wells. One pouch of QUANTI-Luc™ Plus was dissolved in 25 mL of water. 100 μL of QLC Stabilizer per 25 mL of QUANTI-Luc™ Plus solution was added. 50 μL of QUANTI-Luc™ Plus/QLC solution per well was then added. Luminescence was measured on a Platereader (e.g., Spectramax I3X (Molecular Devices GF3637001)).
Luciferase reporter activity was then measured. EC50 values were calculated by using standard methods known in the art.

Molecules are shown by their SMILES.

T1 sequence (Q86WV6 whole entry R71H/G230A/H232R/R293Q): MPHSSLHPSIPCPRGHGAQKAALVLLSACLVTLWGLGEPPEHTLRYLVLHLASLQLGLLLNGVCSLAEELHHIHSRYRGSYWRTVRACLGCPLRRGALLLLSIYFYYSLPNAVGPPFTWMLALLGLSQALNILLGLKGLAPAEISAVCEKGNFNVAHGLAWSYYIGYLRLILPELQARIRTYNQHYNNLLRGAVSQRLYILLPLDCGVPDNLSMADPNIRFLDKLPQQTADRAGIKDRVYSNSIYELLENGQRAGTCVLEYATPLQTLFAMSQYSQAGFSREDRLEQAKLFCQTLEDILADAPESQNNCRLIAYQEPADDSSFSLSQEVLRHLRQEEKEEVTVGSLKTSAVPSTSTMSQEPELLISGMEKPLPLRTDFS

In the case of `Cc1cc(N2CCC(F)(F)CC2)ncc1NC(=O)Nc1c[nH]c2ncc(F)cc12` [Compound 185, 1-(6-(4,4-difluoropiperidin-1-yl)-4-methylpyridin-3-yl)-3-(5-fluoro-1H-pyrrolo[2,3-b]pyridin-3-yl)urea], the concentration giving a half-maximal response (EC50) (numeric bounds) was over 30000 nM. Under “class symbols”, `O=C(Nc1cnc(N2CCC(F)(F)CC2)c(Cl)c1)Nc1c[nH]c2cc(F)cnc12` [Compound 145, 1-(5-chloro-6-(4,4-difluoropiperidin-1-yl)pyridin-3-yl)-3-(6-fluoro-1H-pyrrolo[3,2-b]pyridin-3-yl)urea] gave an EC50 of 200 to 1000 nM. The same measure, in the same setting: the same measure for `N#Cc1cc(NC(=O)Nc2c[nH]c3cccnc23)ccc1C1CCC(F)(F)CC1` [Compound 148, 1-(3-cyano-4-(4,4-difluorocyclohexyl)phenyl)-3-(1H-pyrrolo[3,2-b]pyridin-3-yl)urea]: 200 to 1000 nM; for `O=C(Nc1cnc(N2CCC(F)(F)CC2)c(Cl)c1)Nc1c[nH]c2ncccc12` [Compound 189, 1-(5-chloro-6-(4,4-difluoropiperidin-1-yl)pyridin-3-yl)-3-(1H-pyrrolo[2,3-b]pyridin-3-yl)urea]: 200 to 1000 nM; for `O=C(Nc1ccc(C2CCC(F)(F)CC2)nc1)Nc1c[nH]c2ncc(-c3cccc(CO)c3)cc12` [Compound 105, 1-(6-(4,4-difluorocyclohexyl)pyridin-3-yl)-3-(5-(3-(hydroxymethyl)phenyl)-1H-pyrrolo[2,3-b]pyridin-3-yl)urea]: 5000 to 100000 nM. The compound `Cc1cc(NC(=O)Nc2c[nH]c3ncc(F)cc23)cnc1N1CC2(C1)CC(F)(F)C2` [Compound 162, 1-(6-(6,6-difluoro-2-azaspiro[3.3]heptan-2-yl)-5-methylpyridin-3-yl)-3-(5-fluoro-1H-pyrrolo[2,3-b]pyridin-3-yl)urea] returned a half-maximal effective concentration (EC50) (class symbols) of 200 to 1000 nM. As to `N#Cc1cc(NC(=O)Nc2c[nH]c3ncc(F)cc23)cnc1C1CCC(F)(F)CC1` [Compound 155, 1-(5-cyano-6-(4,4-difluorocyclohexyl)pyridin-3-yl)-3-(5-fluoro-1H-pyrrolo[2,3-b]pyridin-3-yl)urea], for the setting “class symbols”, the EC50 was 40 to 200 nM. On the same count and under the same terms, the same measure for `COCCOc1ccc2[nH]cc(NC(=O)Nc3cnc(C4CCC(F)(F)CC4)c(F)c3)c2n1` [Compound 210, 1-(6-(4,4-difluorocyclohexyl)-5-fluoropyridin-3-yl)-3-(5-(2-methoxyethoxy)-1H-pyrrolo[3,2-b]pyridin-3-yl)urea]: 200 to 1000 nM. On to `Cc1cc(N2CCC(F)(F)CC2)cnc1NC(=O)Nc1c[nH]c2ncc(F)cc12` [Compound 177, 1-(5-(4,4-difluoropiperidin-1-yl)-3-methylpyridin-2-yl)-3-(5-fluoro-1H-pyrrolo[2,3-b]pyridin-3-yl)urea], for which, under “numeric bounds”, the EC50 is over 30000 nM. Consider `COc1ccc2[nH]cc(NC(=O)Nc3ccc(C4CCC(F)(F)CC4)nc3)c2n1` [Compound 213, 1-(6-(4,4-difluorocyclohexyl)pyridin-3-yl)-3-(5-methoxy-1H-pyrrolo[3,2-b]pyridin-3-yl)urea], for which the EC50 (class symbols) is 200 to 1000 nM. On the same count and under the same terms, the same measure for `CCc1cc(NC(=O)Nc2c[nH]c3ncc(F)cc23)cnc1N1CCC(F)(F)CC1` [Compound 163, 1-(6-(4,4-difluoropiperidin-1-yl)-5-ethylpyridin-3-yl)-3-(5-fluoro-1H-pyrrolo[2,3-b]pyridin-3-yl)urea]: 200 to 1000 nM. On the same count and under the same terms, the same measure for `COc1cnc2[nH]cc(NC(=O)Nc3cnc(C4CCC(F)(F)CC4)c(C)c3)c2c1` [Compound 174, 1-(6-(4,4-difluorocyclohexyl)-5-methylpyridin-3-yl)-3-(5-methoxy-1H-pyrrolo[2,3-b]pyridin-3-yl)urea]: 1000 to 5000 nM; for `O=C(Nc1ccc(N2CCC(F)(F)CC2)nn1)Nc1c[nH]c2ncc(F)cc12` [Compound 193, 1-(6-(4,4-difluoropiperidin-1-yl)pyridazin-3-yl)-3-(5-fluoro-1H-pyrrolo[2,3-b]pyridin-3-yl)urea]: 5000 to 100000 nM; for `O=C(Nc1ccc(C2CCC(F)(F)CC2)nc1)Nc1c[nH]c2ncc(Cl)cc12` [Compound 108, 1-(5-chloro-1H-pyrrolo[2,3-b]pyridin-3-yl)-3-(6-(4,4-difluorocyclohexyl)pyridin-3-yl)urea]: 200 to 1000 nM. The same measure, in the same setting: the same measure for `O=C(Nc1cnc(C2CCC(F)(F)CC2)c(CO)c1)Nc1c[nH]c2ncc(F)cc12` [Compound 158, 1-(6-(4,4-difluorocyclohexyl)-5-(hydroxymethyl)pyridin-3-yl)-3-(5-fluoro-1H-pyrrolo[2,3-b]pyridin-3-yl)urea]: 5000 to 100000 nM.

`O=C(Nc1ccc(N2CCC(F)(F)CC2)nc1)Nc1c[nH]c2cccnc12` [Compound 220, 1-(6-(4,4-difluoropiperidin-1-yl)pyridin-3-yl)-3-(1H-pyrrolo[3,2-b]pyridin-3-yl)urea] gave an EC50 (numeric bounds) of over 30000 nM. Compound `COc1ccc2[nH]cc(NC(=O)Nc3cnc(C4CCC(F)(F)CC4)c(C#N)c3)c2n1` [Compound 140, 1-(5-cyano-6-(4,4-difluorocyclohexyl)pyridin-3-yl)-3-(5-methoxy-1H-pyrrolo[3,2-b]pyridin-3-yl)urea] showed an EC50 (class symbols) of 200 to 1000 nM.

`O=C(Nc1ccc(C2CC(F)(F)C2)c(F)c1)Nc1c[nH]c2ncc(F)cc12` [Compound 201, 1-(4-(3,3-difluorocyclobutyl)-3-fluorophenyl)-3-(5-fluoro-1H-pyrrolo[2,3-b]pyridin-3-yl)urea] had an EC50 (class symbols) of 200 to 1000 nM. The same measure, in the same setting: then `COc1ccc2[nH]cc(NC(=O)Nc3cnc(N4CC(F)(F)C4)c(Cl)c3)c2n1` [Compound 231, 1-(5-chloro-6-(3,3-difluoroazetidin-1-yl)pyridin-3-yl)-3-(5-methoxy-1H-pyrrolo[3,2-b]pyridin-3-yl)urea], with 200 to 1000 nM. For the compound `COCCOc1ccc2[nH]cc(NC(=O)Nc3ccc(C4CCC(F)(F)CC4)nc3)c2n1` [Compound 212, 1-(6-(4,4-difluorocyclohexyl)pyridin-3-yl)-3-(5-(2-methoxyethoxy)-1H-pyrrolo[3,2-b]pyridin-3-yl)urea], the EC50 (class symbols) lay in the range of 1000 to 5000 nM.

`O=C(Nc1ccc(C2CCC(F)(F)CC2)nc1)Nc1cn(Cc2ccccc2)c2ncc(F)cc12` [Compound 104, 1-(1-benzyl-5-fluoro-1H-pyrrolo[2,3-b]pyridin-3-yl)-3-(6-(4,4-difluorocyclohexyl)pyridin-3-yl)urea] had a half-maximal effective concentration (EC50) (class symbols) of 5000 to 100000 nM. Same read-out and setting: then `O=C(Nc1cnc(N2CCC(F)(F)CC2)c(Cl)c1)Nc1c[nH]c2ccc(Cl)nc12` [Compound 144, 1-(5-chloro-1H-pyrrolo[3,2-b]pyridin-3-yl)-3-(5-chloro-6-(4,4-difluoropiperidin-1-yl)pyridin-3-yl)urea], with 200 to 1000 nM; and `O=C(Nc1cc(Cl)nc(C2CCC(F)(F)CC2)c1)Nc1c[nH]c2cccnc12` [Compound 217, 1-(2-chloro-6-(4,4-difluorocyclohexyl)pyridin-4-yl)-3-(1H-pyrrolo[3,2-b]pyridin-3-yl)urea], with 1000 to 5000 nM; and `O=C(Nc1ccc(C2CC(F)(F)C2)nc1)Nc1c[nH]c2ncc(F)cc12` [Compound 161, 1-(6-(3,3-difluorocyclobutyl)pyridin-3-yl)-3-(5-fluoro-1H-pyrrolo[2,3-b]pyridin-3-yl)urea], with 1000 to 5000 nM.

For `O=C(Nc1cnc(N2CCCCC2)c(Cl)c1)Nc1c[nH]c2ncc(F)cc12` [Compound 196, 1-(5-chloro-6-(piperidin-1-yl)pyridin-3-yl)-3-(5-fluoro-1H-pyrrolo[2,3-b]pyridin-3-yl)urea], the EC50 (class symbols) was in the range of 200 to 1000 nM.
